Laboratory results from patent US20170333459A1 (priority 2010, published 2017).

Tested on: ectromelia, cowpox, vaccinia, or monkeypox virus
Set-up: species or system mice
Settings: mouse, in vivo

Structure (SMILES): CCCCCCCCCCCCCCCCOCCCOP(=O)(O)CO[C@H](CO)Cn1ccc(N)nc1=O [CMX001, 1-O-hexadecyloxypropyl cidofovir]
- preventing mortality: effective in preventing mortality
